Counter-ions that a name gives are not always drawn. Like-named read-outs stand apart in the source and are kept apart here.
Biological target: PHD2 (Homo sapiens, UniProt Q9GZT9)
Experiment: PHD2 / HIF-1α peptide hydroxylation assay with time resolved fluorescence readout (PHD2 binding activity)
Format: biochemical
Settings: FLAG-tagged full length PHD2, 0.2 μM 2-oxoglutarate, 0.5 μM HIF-1α peptide
Description: After a 30 min preincubation at room temperature, the enzymatic reactions were initiated by the addition of 4 μL of substrates (final concentrations of 0.2 μM 2-oxoglutarate and 0.5 μM HIF-1α peptide biotinyl-DLDLEMLAPYIPMDDDFQL). After 2 hr at room temperature, the reactions were terminated and signals were developed by the addition of a 25 μL quench/detection mix to a final concentration of 1 mM ortho-phenanthroline, 0.1 mM EDTA, 0.5 nM anti-(His)6 LANCE reagent (Perkin-Elmer Life Sciences), 100 nM AF647-labeled streptavidin (Invitrogen), and 2 μg/ml (His)6-VHL complex (S. Tan(2001) Protein Expr. Purif 21, 224-234). The ratio of time resolved fluorescence signals at 665 and 620 nm was determined, and percent inhibition was calculated relative to an uninhibited control sample run in parallel.

[1] = read-out: PHD2 Activity (PHD2 binding activity expressed as IC50)

Chain of PHD2 (Q9GZT9 whole entry): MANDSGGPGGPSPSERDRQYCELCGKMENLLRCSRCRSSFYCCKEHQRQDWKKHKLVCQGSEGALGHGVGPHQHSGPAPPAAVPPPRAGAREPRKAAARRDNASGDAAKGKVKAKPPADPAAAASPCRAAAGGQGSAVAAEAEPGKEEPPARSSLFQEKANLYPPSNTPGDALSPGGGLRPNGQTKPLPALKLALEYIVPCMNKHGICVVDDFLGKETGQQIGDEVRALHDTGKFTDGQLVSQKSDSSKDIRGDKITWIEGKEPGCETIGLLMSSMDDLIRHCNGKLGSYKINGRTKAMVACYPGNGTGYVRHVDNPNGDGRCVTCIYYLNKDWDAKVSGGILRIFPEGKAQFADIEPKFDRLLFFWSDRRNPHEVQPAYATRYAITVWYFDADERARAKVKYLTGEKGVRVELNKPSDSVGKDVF

| IC50 [1] [nM] | SMILES | IC50 (PHD2 Activity (PHD2 binding activity expressed as IC50)) [nM] |
| --- | --- | --- |
| 10 to 100 | CC1c2c(c(O)c(C(=O)NCC(=O)O)c(=O)n2Cc2ccc(-c3ccccc3)cc2)CN1C(=O)c1cscn1 (single isomer, unassigned) [55 Enantiomer 2] | – |
| < 10 | C=CCCC(=O)N1Cc2c(O)c(C(=O)NCC(=O)O)c(=O)n(Cc3cccc(Br)c3)c2C1 [Example 4, N-{[1-(3-bromobenzyl)-4-hydroxy-2-oxo-6-pent-4-enoyl-2,5,6,7-tetrahydro-1H-pyrrolo[3,4-b]pyridin-3-yl]carbonyl}glycine] | – |
| < 10 | O=C(O)CNC(=O)c1c(O)c2c(n(Cc3ccc(C(F)(F)F)cc3)c1=O)CNC2 [Example 7, N-({4-hydroxy-2-oxo-1-[4-(trifluoromethyl)benzyl]-2,5,6,7-tetrahydro-1H-pyrrolo[3,4-b]pyridin-6-ium-3-yl}carbonyl)glycine trifluoroacetate] | – |
| < 10 | O=C(O)CNC(=O)c1c(O)c2c(n(Cc3ccc(C(F)(F)F)cc3)c1=O)CN(C(=O)c1cccc(Cl)c1)C2 [Example 8, N-({6-(3-chlorobenzoyl)-4-hydroxy-2-oxo-1-[4-(trifluoromethyl)benzyl]-2,5,6,7-tetrahydro-1H-pyrrolo[3,4-b]pyridin-3-yl}carbonyl)glycine] | – |
| < 10 | O=C(O)CNC(=O)c1c(O)c2c(n(Cc3ccc(C(F)(F)F)cc3)c1=O)CN(C(=O)N1CCOCC1)C2 [Example 11, N-({4-hydroxy-6-(morpholin-4-ylcarbonyl)-2-oxo-1-[4-(trifluoromethyl)benzyl]-2,5,6,7-tetrahydro-1H-pyrrolo[3,4-b]pyridin-3-yl}carbonyl)glycine] | – |
| < 10 | COCC(=O)N1Cc2c(O)c(C(=O)NCC(=O)O)c(=O)n(Cc3ccc(C(F)(F)F)cc3)c2C1 [Example 14, N-({4-hydroxy-6-(methoxyacetyl)-2-oxo-1-[4-(trifluoromethyl)benzyl]-2,5,6,7-tetrahydro-1H-pyrrolo[3,4-b]pyridin-3-yl}carbonyl)glycine] | – |
| < 10 | CCOC(=O)N1Cc2c(O)c(C(=O)NCC(=O)O)c(=O)n(Cc3ccc(C(F)(F)F)cc3)c2C1 [Example 16, N-({6-(ethoxycarbonyl)-4-hydroxy-2-oxo-1-[4-(trifluoromethyl)benzyl]-2,5,6,7-tetrahydro-1H-pyrrolo[3,4-b]pyridin-3-yl}carbonyl)glycine] | – |
| < 10 | O=C(O)CNC(=O)c1c(O)c2c(n(Cc3ccc(C(F)(F)F)cc3)c1=O)CN(C(=O)N1CCCC1)C2 [Example 17, N-({4-hydroxy-2-oxo-6-(pyrrolidin-1-ylcarbonyl)-1-[4-(trifluoromethyl)benzyl]-2,5,6,7-tetrahydro-1H-pyrrolo[3,4-b]pyridin-3-yl}carbonyl)glycine] | – |
| < 10 | O=C(O)CNC(=O)c1c(O)c2c(n(Cc3ccc(C(F)(F)F)cc3)c1=O)CN(C(=O)c1ccccc1Cl)C2 [Example 18, N-({6-(2-chlorobenzoyl)-4-hydroxy-2-oxo-1-[4-(trifluoromethyl)benzyl]-2,5,6,7-tetrahydro-1H-pyrrolo[3,4-b]pyridin-3-yl}carbonyl)glycine] | – |
| < 10 | O=C(O)CNC(=O)c1c(O)c2c(n(Cc3ccc(C(F)(F)F)cc3)c1=O)CN(S(=O)(=O)c1ccccc1)C2 [Example 19, N-({4-hydroxy-2-oxo-6-(phenyl-sulfonyl)-1-[4-(trifluoromethyl)benzyl]-2,5,6,7-tetrahydro-1H-pyrrolo[3,4-b]pyridin-3-yl}carbonyl)glycine] | – |
| < 10 | O=C(O)CNC(=O)c1c(O)c2c(n(Cc3ccc(C(F)(F)F)cc3)c1=O)CN(C(=O)C1CCCC1)C2 [Example 20, N-({6-(cyclopentylcarbonyl)-4-hydroxy-2-oxo-1-[4-(trifluoromethyl)benzyl]-2,5,6,7-tetrahydro-1H-pyrrolo[3,4-b]pyridin-3-yl}carbonyl)glycine] | – |
| < 10 | O=C(O)CNC(=O)c1c(O)c2c(n(Cc3ccc(C(F)(F)F)cc3)c1=O)CN(C(=O)c1ccc(Cl)cc1)C2 [Example 21, N-({6-(4-chlorobenzoyl)-4-hydroxy-2-oxo-1-[4-(trifluoromethyl)benzyl]-2,5,6,7-tetrahydro-1H-pyrrolo[3,4-b]pyridin-3-yl}carbonyl)glycine] | – |
| < 10 | CCOC(=O)N1Cc2c(O)c(C(=O)NCC(=O)O)c(=O)n(Cc3ccc(-c4ccccc4)cc3)c2C1 [Example 22, N-{[1-(biphenyl-4-ylmethyl)-6-(ethoxycarbonyl)-4-hydroxy-2-oxo-2,5,6,7-tetrahydro-1H-pyrrolo[3,4-b]pyridin-3-yl]carbonyl}glycine] | – |
| < 10 | Cc1cc(C(=O)N2Cc3c(O)c(C(=O)NCC(=O)O)c(=O)n(Cc4ccc(C(F)(F)F)cc4)c3C2)n(C)n1 [Example 23, N-({6-[(1,3-dimethyl-1H-pyrazol-5-yl)carbonyl]-4-hydroxy-2-oxo-1-[4-(trifluoromethyl)benzyl]-2,5,6,7-tetrahydro-1H-pyrrolo[3,4-b]pyridin-3-yl}carbonyl)glycine] | – |
| < 10 | O=C(O)CNC(=O)c1c(O)c2c(n(Cc3ccc(C(F)(F)F)cc3)c1=O)CN(C(=O)c1cc3ncccn3n1)C2 [Example 24, N-({4-hydroxy-2-oxo-6-(pyrazolo[1,5-a]pyrimidin-2-ylcarbonyl)-1-[4-(trifluoromethyl)benzyl]-2,5,6,7-tetrahydro-1H-pyrrolo[3,4-b]pyridin-3-yl}carbonyl)glycine] | – |
| < 10 | O=C(O)CNC(=O)c1c(O)c2c(n(Cc3ccc(C(F)(F)F)cc3)c1=O)CN(C(=O)c1cccnc1)C2 [Example 25, N-({4-hydroxy-2-oxo-6-(pyridin-3-ylcarbonyl)-1-[4-(trifluoromethyl)benzyl]-2,5,6,7-tetrahydro-1H-pyrrolo[3,4-b]pyridin-3-yl}carbonyl)glycine] | – |

Continued, compound first:

| SMILES | IC50 [1] [nM] | IC50 (PHD2 Activity (PHD2 binding activity expressed as IC50)) [nM] |
| --- | --- | --- |
| CC1c2c(c(O)c(C(=O)NCC(=O)O)c(=O)n2Cc2ccc(-c3ccccc3)cc2)CN1C(=O)c1cscn1 (single isomer, unassigned) [55 Enantiomer 1] | < 10 | – |
| C=CCCC(=O)N1Cc2c(O)c(C(=O)NCC(=O)O)c(=O)n(Cc3ccc(C(F)(F)F)cc3)c2C1 [Example 1, N-({4-hydroxy-2-oxo-6-pent-4-enoyl-1-[4-(trifluoromethyl)benzyl]-2,5,6,7-tetrahydro-1H-pyrrolo[3,4-b]pyridin-3-yl}carbonyl)glycine] | < 10 | – |
| C=CCCC(=O)N1Cc2c(O)c(C(=O)NCC(=O)O)c(=O)n(Cc3ccc(-c4ccccc4)cc3)c2C1 [Example 2, N-{[1-(biphenyl-4-ylmethyl)-4-hydroxy-2-oxo-6-pent-4-enoyl-2,5,6,7-tetrahydro-1H-pyrrolo[3,4-b]pyridin-3-yl]carbonyl}glycine] | < 10 | – |
| C=CCCC(=O)N1Cc2c(O)c(C(=O)NCC(=O)O)c(=O)n(Cc3nc4ccccc4s3)c2C1 [Example 3, N-{[1-(1,3-benzothiazol-2-ylmethyl)-4-hydroxy-2-oxo-6-pent-4-enoyl-2,5,6,7-tetrahydro-1H-pyrrolo[3,4-b]pyridin-3-yl]carbonyl}glycine] | < 10 | – |
| C=CCCC(=O)N1Cc2c(O)c(C(=O)NCC(=O)O)c(=O)n(Cc3ccc(Br)cc3)c2C1C (stereo not drawn) [Example 5, N-{[1-(4-bromobenzyl)-4-hydroxy-7-methyl-2-oxo-6-pent-4-enoyl-2,5,6,7-tetrahydro-1H-pyrrolo[3,4-b]pyridin-3-yl]carbonyl}glycine] | < 10 | – |
| C=CCCC(=O)N1Cc2c(c(O)c(C(=O)NCC(=O)O)c(=O)n2Cc2ccc(Br)cc2)C1C (stereo not drawn) [Example 6, N-{[1-(4-bromobenzyl)-4-hydroxy-5-methyl-2-oxo-6-pent-4-enoyl-2,5,6,7-tetrahydro-1H-pyrrolo[3,4-b]pyridin-3-yl]carbonyl}glycine] | < 10 | – |
| CC(=O)N1Cc2c(O)c(C(=O)NCC(=O)O)c(=O)n(Cc3ccc(C(F)(F)F)cc3)c2C1 [Example 9, N-({6-acetyl-4-hydroxy-2-oxo-1-[4-(trifluoromethyl)benzyl]-2,5,6,7-tetrahydro-1H-pyrrolo[3,4-b]pyridin-3-yl}carbonyl)glycine] | < 10 | – |
| CS(=O)(=O)N1Cc2c(O)c(C(=O)NCC(=O)O)c(=O)n(Cc3ccc(C(F)(F)F)cc3)c2C1 [Example 10, N-({4-hydroxy-6-(methylsulfonyl)-2-oxo-1-[4-(trifluoromethyl)benzyl]-2,5,6,7-tetrahydro-1H-pyrrolo[3,4-b]pyridin-3-yl}carbonyl)glycine] | < 10 | – |
| CN(C)S(=O)(=O)N1Cc2c(O)c(C(=O)NCC(=O)O)c(=O)n(Cc3ccc(C(F)(F)F)cc3)c2C1 [Example 12, N-({6-[(dimethylamino)sulfonyl]-4-hydroxy-2-oxo-1-[4-(trifluoromethyl)benzyl]-2,5,6,7-tetrahydro-1H-pyrrolo[3,4-b]pyridin-3-yl}carbonyl)glycine] | < 10 | – |
| O=C(O)CNC(=O)c1c(O)c2c(n(Cc3ccc(C(F)(F)F)cc3)c1=O)CN(C(=O)C1CC1)C2 [Example 13, N-({6-(cyclopropylcarbonyl)-4-hydroxy-2-oxo-1-[4-(trifluoromethyl)benzyl]-2,5,6,7-tetrahydro-1H-pyrrolo[3,4-b]pyridin-3-yl}carbonyl)glycine] | – | < 10 |
| CC(C)(C)C(=O)N1Cc2c(O)c(C(=O)NCC(=O)O)c(=O)n(Cc3ccc(C(F)(F)F)cc3)c2C1 [Example 15, N-({6-(2,2-dimethylpropanoyl)-4-hydroxy-2-oxo-1-[4-(trifluoromethyl)benzyl]-2,5,6,7-tetrahydro-1H-pyrrolo[3,4-b]pyridin-3-yl}carbonyl)glycine] | < 10 | – |

Reference: patent US8372863B2, “Tetrahydro-1H-pyrrolo fused pyridones” (Merck Sharp & Dohme Corp., priority 2008, dated 2013)
